Values joined by “and” are separate entries in the source; they are usually repeats but may differ in a detail not shown here. Equal values may be shown once.

The assay addresses T1, soluble glucose dehydrogenase (GDH) (Acinetobacter calcoaceticus, UniProt P13650).
T1 sequence (P13650 25-478): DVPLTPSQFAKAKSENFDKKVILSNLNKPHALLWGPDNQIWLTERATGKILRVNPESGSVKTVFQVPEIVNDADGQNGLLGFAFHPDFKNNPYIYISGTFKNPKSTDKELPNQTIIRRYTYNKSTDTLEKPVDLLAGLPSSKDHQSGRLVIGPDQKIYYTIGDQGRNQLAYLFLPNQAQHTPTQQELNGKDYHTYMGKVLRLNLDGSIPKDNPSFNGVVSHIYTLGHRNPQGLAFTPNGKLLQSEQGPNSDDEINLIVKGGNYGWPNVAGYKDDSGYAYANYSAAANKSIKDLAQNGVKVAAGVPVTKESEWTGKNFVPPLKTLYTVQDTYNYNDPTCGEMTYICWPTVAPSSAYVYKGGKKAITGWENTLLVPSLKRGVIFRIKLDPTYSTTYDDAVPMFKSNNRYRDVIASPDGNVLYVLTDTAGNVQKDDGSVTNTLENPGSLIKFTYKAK
Nature of the assay: GDH assay: coenzyme activity relative to native methoxatin. It counts as biochemical. On the set-up: concentration or dose not given beside the values. Conditions: coenzyme activity expressed as a percentage of the methoxatin sample. The method, then:
The coenzyme activity of several compounds relative to native methoxatin was determined with a published assay that utilizes soluble glucose dehydrogenase (GDH) from Acinetobactercalcoaceticus. (Misset-Smits et al., Methods in Enzymol., 280, 89-98 (1997)).
With `C=CCCCONC(=O)c1cc(C(=O)O)c2c(n1)C(=O)C(=O)c1cc(C(=O)O)[nH]c1-2` [Compound 5, 4,5-Dioxo-7-((pent-4-en-1-yloxy)carbamoyl)-4,5-dihydro-1H-pyrrolo[2,3-f]quinoline-2,9-dicarboxylic acid], the “Relative Activity in GDH Assay” value was 40% and 45%.
For the molecule `[N-]=[N+]=NCCOCCOCCOCCONC(=O)c1cc(C(=O)O)c2c(n1)C(=O)C(=O)c1cc(C(=O)O)[nH]c1-2` [Compound 7, 7-(((11-Azido-3,6,9-trioxaundecyl)oxy)carbamoyl)-4,5-dioxo-4,5-dihydro-1H-pyrrolo[2,3-f]quinoline-2,9-dicarboxylic acid], the “Relative Activity in GDH Assay” value is 45% and 40%.
With `O=C(/C=C/c1cn([C@H]2C[C@H](O)[C@@H](CO)O2)c(=O)[nH]c1=O)NCCCCCCNC(=O)c1ccc(C(=O)NCCOCCOCCOCCONC(=O)c2cc(C(=O)O)c3c(n2)C(=O)C(=O)c2cc(C(=O)O)[nH]c2-3)c(P(=O)(c2ccccc2)c2ccccc2)c1` [Compound 15, 7-(((1-(2-(diphenylphosphoryl)-4-((6-((E)-3-(1-((2R,4S,5R)-4-hydroxy-5-(hydroxymethyl)tetrahydrofuran-2-yl)-2,4-dioxo-1,2,3,4-tetrahydropyrimidin-5-yl)acrylamido)hexyl)carbamoyl)phenyl)-1-oxo-5,8,11-trioxa-2-azatridecan-13-yl)oxy)carbamoyl)-4,5-dioxo-4,5-dihydro-1H-pyrrolo[2,3-f]quinoline-2,9-dicarboxylic acid] the figure was 6%.
With `O=C(O)c1cc(C(=O)O)c2c(n1)C(=O)C(=O)c1cc(C(=O)O)[nH]c1-2` [Methoxatin] the figure was 100%.

The values above are taken from US8198290B2, “Methoxatin derivatives” (Berry and Associates, Inc., priority 2009, dated 2012).
